Source: publication PMC9814544 (Communications Chemistry, 2020)
Several values for one entry are separate records, joined by “and”; a condition that tells them apart may be missing. Equal entries are not always repeated. Where two headings read alike, the source gives them in different places.

Experiments:
[1] = target: T1, human HDL scavenger receptor class B type I (SR-BI) (Homo sapiens, UniProt Q8WTV0); test: SR-B1 cellular oxLDL uptake counter screen (CHO-Trex-hSR-B1); format: cell-based
T1 construct: expressed in transfected cells; host or cells: CHO T-REx (CHO-Trex-hSR-B1 cell line)
T1 sequence (Q8WTV0 1-509 isoform Q8WTV0-2): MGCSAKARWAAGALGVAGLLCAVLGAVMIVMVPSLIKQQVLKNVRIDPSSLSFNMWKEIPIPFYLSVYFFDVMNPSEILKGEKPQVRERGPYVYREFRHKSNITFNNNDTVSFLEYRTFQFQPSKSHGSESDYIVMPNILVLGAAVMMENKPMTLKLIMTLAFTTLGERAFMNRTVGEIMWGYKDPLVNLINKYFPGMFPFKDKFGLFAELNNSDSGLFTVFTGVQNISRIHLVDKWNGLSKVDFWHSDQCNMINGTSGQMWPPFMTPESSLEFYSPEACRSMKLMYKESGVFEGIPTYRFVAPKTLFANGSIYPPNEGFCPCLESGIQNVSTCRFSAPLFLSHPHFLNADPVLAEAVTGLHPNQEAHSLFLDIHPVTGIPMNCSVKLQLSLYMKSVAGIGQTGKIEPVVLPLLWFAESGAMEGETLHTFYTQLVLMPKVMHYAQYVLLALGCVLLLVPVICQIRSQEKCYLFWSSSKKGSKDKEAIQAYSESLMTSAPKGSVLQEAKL
From the text: To identify small molecule inhibitors of LOX-1 mediated oxLDL uptake we developed a cellular high throughput screening (HTS) assay. Small molecule compounds were screened for their ability to block the uptake of AlexaFluor594 (AF594)-labeled human oxLDL into a CHO-K1 cell line with inducible expression of the human LOX-1 receptor. This readout was visualized and images were quantified by fluorescence microscopy (Fig. 1a). As positive controls, cells without induction of LOX-1 as well as a blocking anti-LOX-1 antibody[29] was used (Fig. 1b). More than one million different compounds were screened. Lead-like compounds (molecular weight above 270 Da) were tested at a concentration of 5 µg/ml, whereas a fragment subset (molecular weight below 270 Da) was tested at a tenfold higher concentration to ensure detection of more weakly active but ligand-efficient fragment-like compounds. Employing a hit criterion of lower than 50% of control, a hit rate of 2.8% was observed (Supplementary Fig. 1). These hits were further confirmed by performing two independent assay runs with fresh compound samples, resulting in a confirmation rate of 80% and a confirmed hit rate of 2.2% (Supplementary Fig. 2). To filter out unspecific or false-positive hits, a counter screen was developed and applied for testing the primary hits[30]–[32]. […]

[2] = target: T2, human LOX-1 receptor (Homo sapiens, UniProt P78380); test: LOX-1 cellular oxLDL uptake assay (AF594-oxLDL, CHO-Trex-hLOX1); format: cell-based
T2 construct: the cellular HTS screen was done using full-length LOX-1 and human oxLDL; expressed in transfected cells; host or cells: CHO-K1 T-REx (CHO-Trex-hLOX1 clone), vector pT-Rex-EXP-30-hLOX
From the text: To identify small molecule inhibitors of LOX-1 mediated oxLDL uptake we developed a cellular high throughput screening (HTS) assay. Small molecule compounds were screened for their ability to block the uptake of AlexaFluor594 (AF594)-labeled human oxLDL into a CHO-K1 cell line with inducible expression of the human LOX-1 receptor. This readout was visualized and images were quantified by fluorescence microscopy (Fig. 1a). As positive controls, cells without induction of LOX-1 as well as a blocking anti-LOX-1 antibody[29] was used (Fig. 1b). More than one million different compounds were screened. Lead-like compounds (molecular weight above 270 Da) were tested at a concentration of 5 µg/ml, whereas a fragment subset (molecular weight below 270 Da) was tested at a tenfold higher concentration to ensure detection of more weakly active but ligand-efficient fragment-like compounds. Employing a hit criterion of lower than 50% of control, a hit rate of 2.8% was observed (Supplementary Fig. 1). These hits were further confirmed by performing two independent assay runs with fresh compound samples, resulting in a confirmation rate of 80% and a confirmed hit rate of 2.2% (Supplementary Fig. 2). To filter out unspecific or false-positive hits, a counter screen was developed and applied for testing the primary hits[30]–[32]. The assay format was identical to the primary assay besides employing a CHO cell line with inducible expression of human HDL scavenger receptor class B type I (SR-BI), an alternative scavenger receptor with low sequence and structural homology to human LOX-1 (Supplementary Fig. 1). Human SR-B1 is a cell surface glycoprotein most highly expressed in liver and steroidogenic tissues and plays a key role in mediating selective HDL cholesterol (HDL-C) uptake in the liver. Its regulation of HDL-C metabolism is believed to be relevant for cardiovascular health and the receptor was therefore chosen as a counter target. Using this single assay, we eliminated compounds that blocked both receptors presumably via an unspecific, non-target related mechanism (Supplementary Fig. 3).
A recombinant CHO-K1 cell line was generated to stably express human LOX-1 under control of a Tetracycline inducible promoter: using Gateway® Cloning (Invitrogen), the hLOX-1 cDNA was cloned into pT-Rex-DEST-30 thus generating pT-Rex-EXP-30-hLOX. The CHO-K1 T-REx host cell line was then transfected with the expression vector pT-Rex-EXP-30-hLOX. Stably transfected cells were selected by Geneticin resistance. Single cell clones expressing human LOX-1 upon induction with Doxycycline were isolated and the best clone selected by qRT-PCR and FACS analysis (CHO-Trex-hLOX1 cell clone). Cells expressing human SR-BI were prepared and used for the assay in a similar fashion (CHO-Trex-hSR-B1 cell line). […]

[3] = Metabolic stability in mouse liver microsomes; format: in vitro ADME; details: in vitro clearance as % hepatic blood flow, n = 1
Experimental: The metabolic degradation of the test compound is assayed at 37 °C with microsomes. The final incubation volume of 100 µl per time point contains TRIS buffer pH 7.6 at RT (0.1 M), magnesium chloride (5 mM), microsomal protein (1 mg/ml or 0.5 mg/ml depending on species) and the test compound at a final concentration of 1 µM.
Following a short preincubation period at 37 °C, the reactions were initiated by addition of beta-nicotinamide adenine dinucleotide phosphate, reduced form (NADPH, 1 mM) and terminated by transfering an aliquot into solvent after different time points. The quenched incubations are pelleted by centrifugation (10000 g, 5 min). An aliquot of the supernatant is assayed by LC-MS/MS for the amount of parent compound. The slope of the semi logarithmic plot of the concentration-time profile determines the half-life. The clearance is calculated by upscaling considering the amount of protein in the incubation, microsomal recovery and liver weight and normalized to the hepatic blood flow of the respective species. The number of experiments for BI-0115 is n = 1.

With `CCCN1C(=O)c2ccc(Cl)cc2Nc2ncccc21` [BI-0115] the IC50 ([1]; eight independent measurements 1-8, Supplementary Table 2, read-out: IC50 on SR-B1, individual measurements) was 88.8 µM and > 54.2 µM and > 100 µM (4×) and > 172 µM (2×), the “activity in the SR-B1 assay” value ([1]; in words) was “no activity” and the IC50 ([2]; eight independent measurements 1-8, Supplementary Table 1, read-out: IC50 on LOX-1, individual measurements) was 7.55 µM and 7.15 µM and 3.34 µM and 2.01 µM and 5.85 µM and 6.95 µM and 5.11 µM and 4.97 µM. The “extent of inhibition of oxLDL uptake in the cellular context” value ([2]; in words, reply to reviewers) was “full inhibition”, the IC50 ([2]; mean, BI-0115 n = 8, BI-1580 n = 2, inhibition of AF594-oxLDL internalization, read-out: LOX-1 IC50) was 5.37 µM and 5.4 µM and the IC50 ([2]; single curve of Fig. 1c, n = 2 per concentration, R^2 = 0.98, read-out: IC50, representative concentration response curve) was 7.2 µM. The “micr. Stab mLM” value [3] was 95 %QH.
